From patent US10213428B2, “(4-((3R,4R)-3-methoxytetrahydro-pyran-4-ylamino)piperidin-1-yl)(5-methyl-6-(((2R,6S)-6-(p-tolyl)tetrahydro-2H-pyran-2-yl)methylamino)pyrimidin-4-yl)methanone citrate” (Centrexion Therapeutics Corporation, priority 2015, dated 2019)

What was measured:
[1] = tested on: U937 cells; assay: In vitro phospholipidosis assay (Nile Red staining, flow cytometry); conditions: 48 hours incubation
Description: Cell line: U937. Cell density: 0.5 Mio. cells/mL. Amount of medium: 3 mL/well.
3×0.5 mL suspensions of cells are prepared from each sample for flow cytometry measurement (non-fixed cells for viability determination, non-fixed cells and fixed cells for phospholipidosis analysis).
Immediately before measurement, 12.5 μL of the PI ready to use solution is added per sample (0.5 mL non-fixed cell suspension), which are kept on ice for another 15 min before measurement.
Cut-off gates for the fluorescence-dependent differentiation between life and dead cells are defined based on the analysis of cell culture medium plus vehicle exposed Control cells. Cells with a fluorescence lower than the cut-off are defined as viable. Absolute viability of a sample is the relation of viable cells to total cell number and expressed as percentage.
Immediately before measurement, 50 μL of the NR ready to use solution for live cell staining is added per sample (0.5 mL non-fixed cell suspension). Samples are kept on ice for another 5 min. […]
Both the Nile Red stained non-fixed cells as well as the Nile Red stained fixed cells are measured according the following procedure. […]
For each channel, absolute fluorescence intensity of a specific sample is correlated to the mean absolute fluorescence intensity of all cell culture medium plus vehicle exposed Control cells of the respective experiment. […]

[2] = molecular target: T1, hERG (Homo sapiens, UniProt Q12809); assay: hERG-channel assay (whole-cell patch clamp, HEK293 cells transfected with hERG cDNA); type: cell-based; conditions: human, HEK293 cells stably transfected with hERG cDNA, pH 7.4, read-out: inhibition of hERG-mediated potassium current
T1 construct: expressed in transfected cells
Source text: (§1) HEK (human embryonic kidney) 293 cells were stably transfected with hERG cDNA. Cells determined for use in patch clamp experiments were cultivated without antibiotic.
(§2) Cells were superfused with a bath solution containing (mM): NaCl (137), KCl (4.0), MgCl2 (1.0), CaCl2 (1.8), Glucose (10), HEPES (10), pH 7.4 with NaOH. Patch pipettes were made from borosilicate glass tubing (Hilgenberg, Malsfeld, Germany) using a horizontal puller (DMZ-Universal Puller, Zeitz-Instrumente, Martinsried, Germany) and filled with pipette solution containing (mM): K-aspartate (130), MgCl2 (5.0), EGTA (5.0), K2ATP (4.0), HEPES (10.0), pH 7.2 with KOH. Resistance of the microelectrodes was in the range between 2 and 5 MΩ.
(§3) Membrane currents were recorded using an EPC-10 patch clamp amplifier (HEKA Electronics, Lambrecht, Germany) and PatchMaster software (HEKA). The current signals were Bessel filtered at 2.5 kHz before being digitized at 5 kHz.
(§4) hERG-mediated membrane currents were recorded at typically 28° C., using the whole-cell configuration of the patch-clamp technique. […] During each inter-pulse interval 4 pulses scaled down by a factor of 0.2 were recorded for a P/n leak subtraction procedure. […] The remaining uncompensated Rs was recorded as well as actual temperature and holding current.
(§5) The concentrations of the test item were applied sequentially on each of the different cells investigated. A steady state level of baseline current was measured for at least 90 s prior to the application of the first test article concentration. […]
(§6) Peak current amplitudes were measured 3 ms after the ramp to +40 mV. […] Residual currents (I/I0) were calculated for each cell as the fraction of actual average peak current and average baseline peak current. Current inhibition was expressed as (1−I/I0)*100%. […]

[3] = molecular target: T2, hERG-mediated potassium current (Homo sapiens, UniProt Q12809); assay: as above; type: cell-based; conditions: HEK293 cells, whole-cell patch clamp; read-out: IC50, inhibition of hERG-mediated potassium current
T2 construct: expressed in transfected cells
Source text: as §1, §2, §3, §4, §5, §6

[4] = Oral pharmacokinetics in dog; type: in vivo, beagle dogs; conditions: oral dose 5 μmol/kg
Source text: (§7) The pharmacokinetics of the test compound following single intravenous (IV) or oral (PO) doses were examined in • female BALB/c mice (average weight: 25 g) • male Wistar(Han) rats (average weight: 260 g) • male and female Göttingen Minipigs (average weight: 24 kg) • male beagle dogs (average weight: 15 kg) All non-rodent species were fasted overnight prior to dosing, while mice and rats had food and water available ad libitum. The p.o. dose of the compound was usually administered as suspension in 0.5% Natrosol or as a 0.5% Natrosol/0.015% Tween 80 suspension. For i.v. dosing purposes, the doses were applied as a solution in 0.9% NaCL, or as a solution containing 9.1% HP-beta Cyclodextrin in water.
(§8) Blood was collected by venous sampling and soaking of the blood in EDTA coated tubes. Samples were collected for up to 48 h after administration of the test compound. Plasma was then separated by centrifugation (5 min by approximately 9000 g at 4° C.). For determination of the test compound, plasma was transferred into PCR plates. All samples were stored at approximately −20° C. until bioanalytics. The test compound concentrations in plasma were determined by HPLC MS/MS. The lower limit of quantification was between 0.5 nmol/L and 1 nmol/L.

[5] = tested on: plasma protein; assay: In vitro plasma protein binding (equilibrium dialysis), human; type: in vitro ADME; conditions: 1.0 μM, dialysis 2 hours at 37° C.
Description: (§9) Dianorm Teflon dialysis cells (micro 0.2) are used. Each cell consists of a donor (i.e., buffer chamber) and an acceptor chamber (i.e., plasma chamber), separated by an ultrathin semipermeable membrane with a 5 kDa molecular weight cutoff. Stock solutions for each test compound are prepared in DMSO at 1 mM and diluted to a final concentration of 1.0 μM. Aliquots of 200 μL dialysis buffer (100 mM potassium phosphate, pH 7.4) are dispensed into the buffer chamber. Aliquots of 200 μL test compound dialysis solution are dispensed into the plasma chambers. Incubation is carried out for 2 hours under rotation at 37° C. Then, the dialysate is transferred into reaction tubes. The tubes for the buffer fraction contain 0.2 mL acetonitril/water (80/20 volume/volume). Aliquots of 25 μL of the plasma dialysate are transferred into deep well plates and mixed with 25 μL acetonitril/water (80/20 volume/volume), 25 μL buffer, 25 μL calibration solution and 25 μL Internal Standard solution. Protein precipitation is done by adding 200 μL acetonitrile. Aliquots of 50 μL of the buffer dialysate are transferred into deep well plates and mixed with 25 μL blank plasma, 25 μL Internal Standard solution and 200 μL acetonitril. Percent bound is calculated with the formula: % bound=(plasma concentration−buffer concentration/plasma concentration)×100.

[6] = as above; type: in vitro ADME; conditions: pH 7.4, dialysis 2 hours at 37° C., read-out: Fraction bound (converted)
Description: as §9

[7] = Intravenous pharmacokinetics in minipig; type: in vivo, Göttingen Minipigs; conditions: IV dose 5 μmol/kg, mean values
Source text: as §7, §8

[8] = male, beagle, plasma, 5 umol/kg, mean values
[9] = both sexes, Göttingen, plasma, 5 umol/kg

T1 sequence (Q12809 whole entry): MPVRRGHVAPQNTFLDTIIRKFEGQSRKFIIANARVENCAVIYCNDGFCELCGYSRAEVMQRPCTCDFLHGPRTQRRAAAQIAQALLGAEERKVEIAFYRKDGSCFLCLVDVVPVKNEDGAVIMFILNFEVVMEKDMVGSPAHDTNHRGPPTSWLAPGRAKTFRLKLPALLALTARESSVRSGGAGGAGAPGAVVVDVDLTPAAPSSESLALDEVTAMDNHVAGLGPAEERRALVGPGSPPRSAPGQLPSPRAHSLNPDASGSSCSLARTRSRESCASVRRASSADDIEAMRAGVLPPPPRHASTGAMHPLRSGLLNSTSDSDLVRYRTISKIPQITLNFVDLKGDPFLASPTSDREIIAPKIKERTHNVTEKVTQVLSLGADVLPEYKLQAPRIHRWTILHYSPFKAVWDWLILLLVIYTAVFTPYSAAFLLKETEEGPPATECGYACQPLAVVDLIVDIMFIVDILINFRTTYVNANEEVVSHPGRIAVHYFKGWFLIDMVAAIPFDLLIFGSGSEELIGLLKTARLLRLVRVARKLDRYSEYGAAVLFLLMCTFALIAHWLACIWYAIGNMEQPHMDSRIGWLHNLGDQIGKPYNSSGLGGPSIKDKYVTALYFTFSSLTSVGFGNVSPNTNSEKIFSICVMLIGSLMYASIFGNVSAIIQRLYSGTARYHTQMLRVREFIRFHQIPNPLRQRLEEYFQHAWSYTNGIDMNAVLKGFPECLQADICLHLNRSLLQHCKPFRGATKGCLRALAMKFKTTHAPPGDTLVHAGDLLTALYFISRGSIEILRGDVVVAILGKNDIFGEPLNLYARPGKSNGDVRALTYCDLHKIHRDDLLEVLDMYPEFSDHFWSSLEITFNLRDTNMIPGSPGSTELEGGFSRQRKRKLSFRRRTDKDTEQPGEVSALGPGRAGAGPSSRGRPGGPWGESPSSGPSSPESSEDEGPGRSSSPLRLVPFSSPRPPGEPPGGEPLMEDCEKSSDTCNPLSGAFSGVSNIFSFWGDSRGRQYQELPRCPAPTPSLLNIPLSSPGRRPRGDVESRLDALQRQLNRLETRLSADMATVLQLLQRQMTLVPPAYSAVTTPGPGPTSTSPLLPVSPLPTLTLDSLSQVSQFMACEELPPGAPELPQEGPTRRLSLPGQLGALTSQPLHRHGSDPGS
T2 sequence (Q12809 whole entry): as above

SMILES: CO[C@H]1COCC[C@H]1NC1CCN(C(=O)c2ncnc(NC[C@H]3CCC[C@@H](c4ccc(C)cc4)O3)c2C)CC1 [compound I, (4-((3R,4R)-3-methoxytetrahydro-pyran-4-ylamino)piperidin-1-yl)(5-methyl-6-(((2R,6S)-6-(p-tolyl)tetrahydro-2H-pyran-2-yl)methylamino)pyrimidin-4-yl)methanone]
- lowest phospholipidogenic concentration [1]: 200 µM
- phospholipidogenic potential (in words) [1]: propensitiy to be phospholipidogenic
- inhibition at 10 µM ([2]; at 10 μM): 12%
- inhibition at 30 µM ([2]; at 30 μM): 28%
- IC50 [3]: > 30 µM
- AUC(0-inf) [4, 8]: 1.5 µM·h
- Cmax [4, 8]: 317 nM
- Tmax [4, 8]: 0.917 h
- MRTtot ([4]; mean values): 5.77 h
- F ([4]; oral bioavailability): 25%
- Fraction unbound [5]: 15.3%
- fraction unbound at 2 h, 1 μM [6]: 0.153
- MRTdisp [7]: 4.15 h
- AUC(0-inf) [7, 9]: 4.31 µM·h
- clearance [7, 9]: 20 mL/min/kg
- Vd ([7]; both sexes, Göttingen, plasma, 5 umol/kg, read-out: Vss): 5.07 L/kg
